Where two headings read alike, the source gives them in different places.
What was measured:
viable cells in culture = test: Cell viability assay (CellTiter-Glo Luminescent Cell Viability Assay, ATP quantitation, percent of vehicle control)
[1] = system: human TERT expression (hTERT mRNA); test: Quantitative real-time RT-PCR of hTERT mRNA expression (Ct, transcripts) in compound-treated cells; type: cell-based
How it was run: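 Read-out is cycle threshold, the cycle at which probe fluorescence released by Taq 5′-nuclease activity crosses a set level; Ct falls as hTERT mRNA rises. cDNA of treated and untreated cells was compared, with starting transcripts quantified against a known-cDNA standard curve.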

SMILES	Average Cell Viability after 24 Hours (% DMSO) (viable cells in culture)	Average Number of hTERT Transcripts [1]	Average Number of hTERT Transcripts ([1]; quantitative real-time RT-PCR)
COc1cccc(CCNC(=O)c2cc(-c3cccs3)on2)c1 [compound 1497]	92.73	14.74	
CCCCCC(=O)N/N=C(/C)c1ccccn1 [compound 1294]	74.63		105.99
Cc1cn(-c2ccc3c(Cl)cc(Cl)c(O)c3n2)nc1C [compound 1079]	71.22		98.36
O=C(CN1C(C(=O)c2ccccc2)=C(O)c2ccccc2S1(=O)=O)c1ccc(Br)cc1 [compound 1210]	62.70		26.56
O=C(COc1ccc(Cl)cc1)N/N=C/c1cccc2cccnc12 [compound 1290]	62.81		9.13
COc1cc(CNC2CCCC2)ccc1OCCO [compound 1450]	96.61	8.24	
Clc1cccc(CSc2ccc(-c3ccccn3)nn2)c1 [compound 1260]	60.48		17.25
CCOc1cccc(/C=N/NC(=O)CNc2ccc(C)cc2)c1O [compound 1526]	79.56	8.14	
COc1ccc(C2=NN(c3nc4ccccc4s3)C(=O)C2)cc1 [compound 1107]	98.68		67.06
O=C(Nc1nc(-c2ccccn2)cs1)c1ccc2ncsc2c1 [compound 1205]	86.42		114.55
S=C(Nc1ccc(Br)cc1)Nc1cccc(Cl)c1 [compound 1344]	42.95		7.86
CCCCN1C(C(=O)c2ccccc2)=C(OC(=O)C(C)C)c2ccccc2S1(=O)=O [compound 1217]	45.00		10.04
CCOC(=O)C(=O)Nc1ccc(S(=O)(=O)N2CC(C)CC(C)C2)cc1 (stereo not shown) [compound 1445]	87.20	6.33	
O=C(CSc1ncccc1C(=O)O)Nc1ccc(Oc2ccccc2)cc1 [compound 1343]	103.75		4.57
O=C(NCCc1ccccn1)c1cc(-c2cccs2)on1 [compound 1521]	106.64	329.90	
Cc1cc(CNC(=O)c2cc(-c3cccs3)on2)no1 [compound 1503]	108.11	28.94	
Cc1cc(=O)c2c(=O)n(-c3nc4ccccc4s3)[nH]c2[nH]1 [compound 1466]	75.47	97.31	
O=C(NC1CCCC1)c1cc(-c2cccs2)on1 [compound 1184]	88.36		73.49
Cc1noc(-c2cc(Br)cc(Br)c2O)n1 [compound 1312]	67.76		51.29
O=C(NNC1=C(C(=O)C(F)(F)F)CCC1)c1ccc(Br)cc1 [compound 1276]	92.70		9.73
